[1] abbreviates: in water, ionic strength 0 to 0.1 mole/liter, 25° C.

Like-named read-outs stand apart in the source and are kept apart here.

In turn, `Cc1cccc(C(=O)O)c1` [m-methylbenzoic acid, reference compound] came in with a pKa (water) of 4.27.
Turning to `N#Cc1cccc(C(=O)O)c1` [m-cyanobenzoic acid], the pKa under setting [1] is given as 3.60.
On the same count and under the same terms, the figure for `COc1ccccc1C(=O)O` [o-methoxybenzoic acid] is 4.09.
For the setting “water”, `O=C(O)c1ccccc1Cl` [o-chlorobenzoic acid] gave a pKa of 2.92.
Under setting [1], `O=C(O)c1c(Cl)cccc1Cl` [2,6-dichlorobenzoic acid] showed a pKa of 1.82.
Same read-out and setting: the figure for `O=C(O)c1cccc(Cl)c1` [m-chlorobenzoic acid] is 3.82.
On the same count and under the same terms, next, `O=C(O)c1ccccc1F` [o-fluorobenzoic acid]: 3.27.
The molecule `O=C(O)c1cccc(C(F)(F)F)c1` [m-trifluoromethylbenzoic acid] registered a pKa (water) of 3.77.
Where the note is “water”, `O=C(O)c1ccccc1-c1ccccc1` [o-phenylbenzoic acid] showed a pKa of 3.46.
Same read-out and setting: next, `CC(=O)c1ccccc1C(=O)O` [o-acetylbenzoic acid]: 3.79.
`CNc1ccccc1C(=O)O` [N-methylanthranilic acid] yielded a pKa under setting [1] of 5.34.
As to `O=C(O)c1c(F)c(F)c(F)c(F)c1F` [pentafluorobenzoic acid, reference compound], the pKa (water) amounted to 1.48.
Consider `CC(=O)c1ccc(C(=O)O)cc1` [p-acetylbenzoic acid], for which, where the note is “water”, the pKa is on record as 3.70.
Still for that read-out and setting: the figure for `O=C(O)c1ccccc1Br` [o-bromobenzoic acid] is 2.85.
Turning to `Nc1ccccc1C(=O)O` [Anthranilic acid], under setting [1], the pKa is given as 4.79.
With `O=C(O)c1c(F)cccc1F` [2,6-difluorobenzoic acid], the pKa (water) is given as 2.31.
On to `O=C(O)c1ccc(Cl)c(Cl)c1` [3,4-dichlorobenzoic acid], for which the pKa under setting [1] is listed as 3.64.

The values are drawn from patent US5466858A, “Method of producing straight-chain acrylonitrile dimers” (priority 1993, dated 1995).
